According to patent US7166744B2, “Retinoid derivatives and methods for producing said compounds and anti-cancer pharmaceutical composition comprising said compounds” (Chebigen Co., Ltd., priority 2001, dated 2007):

The molecules below were run on MMP-2 mRNA expression (assay: RT-PCR of MMP-2 mRNA in HCT116). Settings: HCT116, 1 μM, 36 hours.
Assay type: cell-based
Experimental: (§1) Previously, it was shown that the synthetic retinoid derivatives inhibit the transcriptional activity of AP-1. Also, it is well known that MMP (matrix metalloproteinase), a main target gene of AP-1 is involved in metastasis of cancer cells. Therefore, the inhibitive effects of the retinoid derivatives on metastasis of cancer was examined by RT-PCR analysis. Colon cancer HCT116 cells were treated with 1 μM retinoid for 36 hours. RNA was isolated from the cells and mRNA expression levels of MMP-1, -2 and -3 were analyzed by RT-PCR. […] As the control, GAPDH was used and it was confirmed that its expression was not affected by retinoid. Meanwhile, the expression level of MMP-3 was affected weakly by KCBG40, intermediately by KCBG41 but strongly by KCBG10 (FIG. 9).
(§2) RNA was isolated from the cells and mRNA expression levels of MMP-1, -2 and -3 were analyzed by RT-PCR (FIG. 14).

Row | Molecule | inhibition of MMP-2 mRNA expression
1 | CCCC(=O)Nc1ccc(NC(=O)/C=C(C)/C=C/C=C(C)/C=C/C2=C(C)CCCC2(C)C)cc1 [KCBG40, (2E,4E,6E,8E)-[3,7-dimethyl-9-(2,6,6-trimethylcyclohex-1-enyl)-nona-2,4,6,8-tetraenoylamino]-(4-butyrylamino)phenylamide] | affected very little

Each molecule was assayed on MMP-1 mRNA expression (assay: RT-PCR of MMP-1 mRNA in HCT116). Settings: HCT116, 1 μM, 36 hours.
Assay type: cell-based
Experimental: as §1, §2

Row | Molecule | inhibition of MMP-1 mRNA expression
2 | CCCC(=O)Nc1ccc(NC(=O)/C=C(C)/C=C/C=C(C)/C=C/C2=C(C)CCCC2(C)C)cc1 [KCBG40, (2E,4E,6E,8E)-[3,7-dimethyl-9-(2,6,6-trimethylcyclohex-1-enyl)-nona-2,4,6,8-tetraenoylamino]-(4-butyrylamino)phenylamide] | affected very little

Each molecule was assayed on HCT116 colon cancer cells (assay: DAPI staining of nuclei, HCT116). Settings: HCT116, 5 μM, 36 h.
Assay type: cell-based
Experimental: By DAPI (4,6-diamidino-2-phenylindole) staining assay for staining DNA in cellular nucleus, nuclear condensation and fragmentation, characteristic features of apoptosis, were observed. […] In FIG. 4, the control represents non-treated cells. The sub-G1 DNA contents of colon cancer HTC116 cells and breast cancer MCF-7 cells were measured by FACS (Fluorescence-Activated Cell Sorter) assay to quantify the apoptosis (FIG. 5). Finally, in order to further characterize the apoptosis observed in retinoid derivative-treated cells, the cleavage of apoptosis-related proteins, including PARP (poly(ADP-ribose)polymerase) and CPP32 (caspase-3) by Western blotting. […] PARP cleavage occurred in a time-dependent manner, in parallel with the induction of apoptosis (FIG. 6B). C in FIG. 6 represents the result of Western blotting of non-treated cells.
Meanwhile, HPR which is a precursor during the synthesis process of KCBG60 is known to induce apoptosis. Considering that the cells aggregated into small spherical mass upon treatment with KCBG60, KCBG60 is expected to induce apoptosis. In order to confirm apoptosis induced by KCBG60 once again, KCBG60-treated HCT116 cells were stained with DAPI and observed for nuclear condensation, an indicative of apoptosis (FIG. 12).

Row | Molecule | nuclear condensation and fragmentation (DAPI)
3 | CCCC(=O)Nc1ccc(NC(=O)/C=C(C)/C=C/C=C(C)/C=C/C2=C(C)CCCC2(C)C)cc1 [KCBG40, (2E,4E,6E,8E)-[3,7-dimethyl-9-(2,6,6-trimethylcyclohex-1-enyl)-nona-2,4,6,8-tetraenoylamino]-(4-butyrylamino)phenylamide] | largely showed nuclear fragmentation

What follows are molecules tested on MMP-3 mRNA expression (assay: RT-PCR of MMP-3 mRNA in HCT116). Settings: HCT116, 1 μM, 36 hours.
Assay type: cell-based
Experimental: as §1

Row | Molecule | effect on MMP-3 mRNA expression level
4 | CCCC(=O)Nc1ccc(NC(=O)/C=C(C)/C=C/C=C(C)/C=C/C2=C(C)CCCC2(C)C)cc1 [KCBG40, (2E,4E,6E,8E)-[3,7-dimethyl-9-(2,6,6-trimethylcyclohex-1-enyl)-nona-2,4,6,8-tetraenoylamino]-(4-butyrylamino)phenylamide] | weakly

What follows are molecules tested on colon cancer cells (assay: MTT proliferation assay, colon cancer cells (Table 1)). Settings: 48 hours, concentration required for 50% growth inhibition, read-out: IC50, activities of various retinoid derivatives in colon cancer cells.
Assay type: cell-based
Experimental: The effects of test compounds on proliferation of various cancer cells was examined by 3-(4,5-dimethylthiazol-2-yl)-2,5-diphenyltetrazolium bromide (MTT, Sigma) assay in a dose dependent manner. In the MTT assay, colon, liver, cervix, ovary, and breast cancer cell lines were treated with test compounds at various concentrations. Living cancer cells reduce MTT to dark blue MTT formazan that would be measured by absorbance.
Colon cancer cells, HCT116, DLD-1 and HT29, cervix cancer cells, HeLa and CaSki, ovary cancer cells, SKOV-3, 2774 and OVCAR-3, liver cancer cells, SK-Hep-1, PLCPRF5 and HepG2, and breast cancer cells, ZR75-1 and MDA-MB 231 were seeded at an initial density of 3000 cells per well in 96-well plates. After attachment of cells to the walls of the wells, the medium containing fresh retinoid was treated with various concentrations (0.5 μM, 1 μM, 2.5 μM, 5 μM, 10 μM) for 48 hours. 50 μl of MTT solution (2 mg/ml in PBS) was added to cell culture media. The reaction micture was incubated at 37° C. in a 5% CO2 atmosphere for 4 hours. The supernatant was removed and 150 μl of DMSO was added. The optical density was measured spectrophotometrically at 550 nm. […] For other retinoid derivatives according to the present invention, absorbances were measured by this procedure and IC50 values, concentrations required for 50% growth inhibition, were determined.

Row | IC50 [µM] | Molecule
5 | 3.5 | 2-[(2E,4E,6E,8E)-3,7-Dimethyl-9-(2,6,6-trimethylcyclohex-1-enyl)-nona-2,4,6,8-tetraenoylamino]-5-hydroxyphenyl(dimethylamino)acetate [KCBG23]
6 | 5 | 4-(4-[(2E,4E,6E,8E)-3,7-dimethyl-9-(2,6,6-trimethyl-1-cyclohexenyl)-2,4,6,8-nonatetraenoyl]aminophenoxy)-4-oxobutanoic acid [KCBG32]
7 | 6.5 | 4-(4-[(2E,4E,6E,8E)-3,7-dimethyl-9-(2,6,6-trimethyl-1-cyclohexenyl)-2,4,6,8-nonatetraenoyl]aminophenoxy)-oxo-heptanedioic acid [KCBG53]
8 | 4.5 | 4-(4-[(2E,4E,6E,8E)-3,7-dimethyl-9-(2,6,6-trimethyl-1-cyclohexenyl)-2,4,6,8-nonatetraenoyl]aminophenoxy)-oxo-hexanedioic acid [KCBG51]
9 | > 100 | CC1=C(/C=C/C(C)=C/C=C/C(C)=C/C(=O)Nc2ccc(O)cc2O)C(C)(C)CCC1 [KCBG08, (2E,4E,6E,8E)-[3,7-dimethyl-9-(2,6,6-trimethylcyclohex-1-enyl)-nona-2,4,6,8-tetraenoyl]-(2,4-dihydroxy)phenylamide]
10 | 10 to 20 | CCCC(=O)Oc1ccc(NC(=O)C=C(C)C=CC=C(C)C=CC2=C(C)CCCC2(C)C)c(OC(=O)CCC)c1 [KCBG09, 5-Butyryloxy-2-[3,7-dimethyl-9-(2,6,6-trimethylcyclohex-1-enyl)-nona-2,4,6,8-tetraenoylamino]-phenylbutanoate]
11 | 8 | CCC(=O)Oc1cc(O)ccc1NC(=O)/C=C(C)/C=C/C=C(C)/C=C/C1=C(C)CCCC1(C)C [KCBG15, 2-[(2E,4E,6E,8E)-3,7-dimethyl-9-(2,6,6-trimethylcyclohex-1-enyl)-nona-2,4,6,8-tetraenoylamino]-5-hydroxyphenylpropionate]
12 | 6 | CC(=O)C(=O)Oc1cc(O)ccc1NC(=O)/C=C(C)/C=C/C=C(C)/C=C/C1=C(C)CCCC1(C)C [KCBG22, 2-[(2E,4E,6E,8E)-3,7-dimethyl-9-(2,6,6-trimethylcyclohex-1-enyl)-nona-2,4,6,8-tetraenoylamino]-5-hydroxyphenyl-2-oxopropionate]
13 | 3 | CCCC(=O)Oc1ccc(NC(=O)/C=C(C)/C=C/C=C(C)/C=C/C2=C(C)CCCC2(C)C)cc1OC(=O)CCC [KCBG34, 2-Butyryloxy-5-(2E,4E,6E,8E)-[3,7-dimethyl-9-(2,6,6-trimethylcyclohex-1-enyl)-nona-2,4,6,8-tetraenoylamino]phenylbutanoate]
14 | 2 | CCCC(=O)Oc1cc(NC(=O)/C=C(C)/C=C/C=C(C)/C=C/C2=C(C)CCCC2(C)C)ccc1O [KCBG35, 5-(2E,4E,6E,8E)-[3,7-dimethyl-9-(2,6,6-trimethylcyclohex-1-enyl)-nona-2,4,6,8-tetraenoylamino]-2-hydroxyphenylbutanoate]
15 | 2 | CCC(=O)C(=O)Oc1cc(O)ccc1NC(=O)/C=C(C)/C=C/C=C(C)/C=C/C1=C(C)CCCC1(C)C [KCBG38, 2-[(2E,4E,6E,8E)-3,7-dimethyl-9-(2,6,6-trimethylcyclohex-1-enyl)-nona-2,4,6,8-tetraenoylamino]-5-hydroxyphenyl 2-oxobutanoate]
16 | 3 | CC1=C(/C=C/C(C)=C/C=C/C(C)=C/C(=O)Nc2ccc(O)cc2OC(=O)CC(C)O)C(C)(C)CCC1 (stereo not drawn) [KCBG39, 2-[(2E,4E,6E,8E)-3,7-dimethyl-9-(2,6,6-trimethylcyclohex-1-enyl)-nona-2,4,6,8-tetraenoylamino]-5-hydroxyphenyl-3-hydroxybutanoate]
17 | 0.6 | CCCC(=O)Nc1ccc(NC(=O)/C=C(C)/C=C/C=C(C)/C=C/C2=C(C)CCCC2(C)C)cc1 [KCBG40, (2E,4E,6E,8E)-[3,7-dimethyl-9-(2,6,6-trimethylcyclohex-1-enyl)-nona-2,4,6,8-tetraenoylamino]-(4-butyrylamino)phenylamide]
18 | 7 | CCCC(=O)Nc1cc(NC(=O)/C=C(C)/C=C/C=C(C)/C=C/C2=C(C)CCCC2(C)C)ccc1OC(=O)CCC [KCBG42, 2-Butyrylamino-4-(2E,4E,6E,8E)-[3,7-dimethyl-9-(2,6,6-trimethylcyclohex-1-enyl)-nona-2,4,6,8-tetraenoylamino]-phenylbutanoate]
19 | 4 | CCCCS(=O)(=O)Oc1ccc(NC(=O)/C=C(C)/C=C/C=C(C)/C=C/C2=C(C)CCCC2(C)C)cc1 [KCBG43, 4-[(2E,4E,6E,8E)-3,7-dimethyl-9-(2,6,6-trimethyl-1-cyclohexenyl)-2,4,6,8-nonatetraenoyl]aminophenyl-1-butanesulfonate]
20 | 7 | CC(=O)C(=O)Oc1ccc(NC(=O)/C=C(C)/C=C/C=C(C)/C=C/C2=C(C)CCCC2(C)C)cc1 [KCBG45, 4-[(2E,4E,6E,8E)-3,7-dimethyl-9-(2,6,6-trimethyl-1-cyclohexenyl)-2,4,6,8-nonatetraenoyl]aminophenyl-2-oxopropanoate]
21 | 1.8 | CCC(=O)C(=O)Oc1ccc(NC(=O)/C=C(C)/C=C/C=C(C)/C=C/C2=C(C)CCCC2(C)C)cc1 [KCBG47, 4-[(2E,4E,6E,8E)-3,7-dimethyl-9-(2,6,6-trimethyl-1-cyclohexenyl)-2,4,6,8-nonatetraenoyl]aminophenyl-2-oxobutanoate]
22 | 5.5 | CC1=C(/C=C/C(C)=C/C=C/C(C)=C/C(=O)Nc2ccc(OC(=O)CCC(=O)O)cc2)C(C)(C)CCC1 [KCBG50, 4-(4-[(2E,4E,6E,8E)-3,7-dimethyl-9-(2,6,6-trimethyl-1-cyclohexenyl)-2,4,6,8-nonatetraenoyl]aminophenoxy)-4-oxobutanoic acid]
23 | 7 | CC(=O)NC(CCC(N)=O)C(=O)Oc1ccc(NC(=O)/C=C(C)/C=C/C=C(C)/C=C/C2=C(C)CCCC2(C)C)cc1 (stereo not drawn) [KCBG52, 4-[(2E,4E,6E,8E)-3,7-dimethyl-9-(2,6,6-trimethylcyclohex-1-enyl)-nona-2,4,6,8-tetraenoylamino]phenyl-2-acetylamino-4-carbamoylbutanoate]
24 | 3.5 | CC1=C(/C=C/C(C)=C/C=C/C(C)=C/C(=O)Nc2ccc(OC(=O)CCCCCCC(=O)O)cc2)C(C)(C)CCC1 [KCBG54, 4-(4-[(2E,4E,6E,8E)-3,7-dimethyl-9-(2,6,6-trimethyl-1-cyclohexenyl)-2,4,6,8-nonatetraenoyl]aminophenoxy)-oxo-octanedionic acid]
